Assay results from ChEMBL document CHEMBL5724914, “Linking interpersonal differences in gut microbiota composition and drug biotransformation activity” (2024).

Columns and labels:
[1] = (§1) The drug is tested on WLS-069 corresponding to human gut metagenome with ENA study accession number: PRJEB37062 and ENA sample accession number: ERS12561748 for biotransformation under anaerobic condition. The drug concentrations were measured over 9 timepoints collected between 0 and 24 hours of incubation by liquid-chromatography-coupled mass spectrometry (LC–MS); settings: 2 µM
[2] = human gut metagenome, 24 h, 2 µM
[3] = as §1, with “Z-017” for “WLS-069”, “mouse” for “human”, “ERS12561816” for “ERS12561748”; settings: 2 µM
[4] = as §1, with “Z-016” for “WLS-069”, “mouse” for “human”, “ERS12561815” for “ERS12561748”; settings: 2 µM
[5] = as §1, with “Z-030” for “WLS-069”, “mouse” for “human”, “ERS12561829” for “ERS12561748”; settings: 2 µM
[6] = as §1, with “WLS-220” for “WLS-069”, “ERS12561769” for “ERS12561748”; settings: 2 µM
[7] = as §1, with “WLS-039” for “WLS-069”, “ERS12561746” for “ERS12561748”; settings: 2 µM
[8] = human gut metagenome, 24 h, 2 µM; remark: listed apart in the source
[9] = human gut metagenome, 24 h, 2 µM; remark: listed apart in the source
[10] = as §1, with “WLS-090” for “WLS-069”, “ERS12561753” for “ERS12561748”; settings: 2 µM
[11] = human gut metagenome, 24 h, 2 µM; remark: listed apart in the source
[12] = human gut metagenome, 24 h, 2 µM; remark: listed apart in the source
[13] = human gut metagenome, 24 h, 2 µM; remark: listed apart in the source
[14] = as §1, with “Z-009” for “WLS-069”, “pig” for “human”, “ERS12561809” for “ERS12561748”; settings: 2 µM
[15] = as §1, with “WLS-310” for “WLS-069”, “ERS12561785” for “ERS12561748”; settings: 2 µM
[16] = human gut metagenome, 24 h, 2 µM; remark: listed apart in the source
[17] = as §1, with “Z-023” for “WLS-069”, “to” for “to human gut”, “ERS12561822” for “ERS12561748”; settings: 2 µM
[18] = as §1, with “WLS-052” for “WLS-069”, “ERS12561747” for “ERS12561748”; settings: 2 µM
[19] = human gut metagenome, 24 h, 2 µM; remark: listed apart in the source
[20] = as §1, with “Z-008” for “WLS-069”, “to” for “to human gut”, “ERS12561808” for “ERS12561748”; settings: 2 µM
Further: call rule not given here.

SMILES	Bacterial Biotransformation [1]	Bacterial Biotransformation [2]	Bacterial Biotransformation [3]	Bacterial Biotransformation [4]	Bacterial Biotransformation [5]	Bacterial Biotransformation [6]	Bacterial Biotransformation [7]	Bacterial Biotransformation [8]	Bacterial Biotransformation [9]	Bacterial Biotransformation [10]	Bacterial Biotransformation [11]	Bacterial Biotransformation [12]	Bacterial Biotransformation [13]	Bacterial Biotransformation [14]	Bacterial Biotransformation [15]	Bacterial Biotransformation [16]	Bacterial Biotransformation [17]	Bacterial Biotransformation [18]	Bacterial Biotransformation [19]	Bacterial Biotransformation [20]
CN1CCc2cccc3c2[C@H]1Cc1ccc(O)c(O)c1-3 [APOMORPHINE]	Compound NOT metabolized	Compound NOT metabolized	Compound NOT metabolized	Compound NOT metabolized	Compound NOT metabolized	Compound NOT metabolized	Compound NOT metabolized	Compound NOT metabolized	Compound NOT metabolized	Compound NOT metabolized	Compound NOT metabolized	Compound NOT metabolized	Compound NOT metabolized	Compound metabolized	Compound NOT metabolized	Compound NOT metabolized				
C[C@@H]1CC[C@H]2[C@@H](C)C(=O)O[C@@H]3O[C@@]4(C)CC[C@@H]1[C@]32OO4 [ARTEMISININ]	Compound metabolized	Compound NOT metabolized		Compound metabolized	Compound metabolized	Compound metabolized	Compound metabolized	Compound metabolized	Compound metabolized	Compound metabolized		Compound metabolized	Compound metabolized		Compound metabolized	Compound metabolized	Compound metabolized	Compound metabolized	Compound metabolized	
C#C[C@]1(O)CC[C@H]2[C@@H]3CCC4=Cc5oncc5C[C@]4(C)[C@H]3CC[C@@]21C [DANAZOL]	Compound metabolized	Compound metabolized		Compound NOT metabolized	Compound metabolized	Compound metabolized	Compound metabolized			Compound metabolized	Compound NOT metabolized		Compound metabolized		Compound metabolized		Compound metabolized	Compound metabolized		Compound metabolized
COc1c2occc2cc2ccc(=O)oc12 [METHOXSALEN]	Compound metabolized	Compound metabolized	Compound metabolized	Compound metabolized	Compound NOT metabolized	Compound metabolized	Compound metabolized	Compound metabolized		Compound metabolized	Compound metabolized	Compound metabolized		Compound metabolized	Compound metabolized	Compound metabolized	Compound metabolized	Compound metabolized	Compound metabolized	Compound metabolized
CN1C(=O)CC(C)(c2ccccc2)C1=O (stereo not drawn) [METHSUXIMIDE]	Compound NOT metabolized	Compound NOT metabolized	Compound NOT metabolized	Compound NOT metabolized		Compound NOT metabolized	Compound NOT metabolized	Compound NOT metabolized	Compound NOT metabolized	Compound NOT metabolized	Compound NOT metabolized	Compound NOT metabolized	Compound NOT metabolized	Compound NOT metabolized	Compound NOT metabolized	Compound NOT metabolized	Compound NOT metabolized	Compound NOT metabolized	Compound NOT metabolized	Compound NOT metabolized
COc1ccccc1N1CCN(CC(O)COc2cccc3ccccc23)CC1 (stereo not drawn) [NAFTOPIDIL]	Compound NOT metabolized	Compound NOT metabolized	Compound NOT metabolized	Compound NOT metabolized		Compound NOT metabolized	Compound NOT metabolized	Compound NOT metabolized	Compound NOT metabolized	Compound NOT metabolized	Compound NOT metabolized	Compound NOT metabolized	Compound NOT metabolized	Compound NOT metabolized	Compound NOT metabolized	Compound NOT metabolized	Compound metabolized	Compound NOT metabolized	Compound NOT metabolized	Compound NOT metabolized
CNC(=C[N+](=O)[O-])NCCSCc1csc(CN(C)C)n1 [NIZATIDINE]	Compound metabolized	Compound NOT metabolized		Compound NOT metabolized	Compound metabolized	Compound NOT metabolized	Compound NOT metabolized	Compound NOT metabolized	Compound metabolized	Compound NOT metabolized	Compound metabolized	Compound metabolized	Compound metabolized	Compound NOT metabolized	Compound metabolized	Compound NOT metabolized	Compound NOT metabolized	Compound NOT metabolized	Compound NOT metabolized	Compound NOT metabolized
Cc1nc2n(c(=O)c1CCN1CCC(c3noc4cc(F)ccc34)CC1)CCCC2 [RISPERIDONE]	Compound metabolized	Compound metabolized	Compound metabolized	Compound metabolized	Compound NOT metabolized	Compound metabolized	Compound metabolized	Compound metabolized	Compound NOT metabolized	Compound metabolized	Compound metabolized	Compound metabolized	Compound NOT metabolized	Compound metabolized	Compound metabolized	Compound metabolized	Compound metabolized	Compound metabolized		Compound metabolized
COc1ccc2[nH]c([S+]([O-])Cc3ncc(C)c(OC)c3C)nc2n1 (stereo not drawn) [TENATOPRAZOLE]	Compound metabolized	Compound metabolized	Compound metabolized	Compound metabolized	Compound metabolized	Compound metabolized	Compound metabolized	Compound metabolized	Compound NOT metabolized		Compound NOT metabolized	Compound metabolized	Compound metabolized	Compound metabolized	Compound metabolized	Compound metabolized	Compound NOT metabolized	Compound metabolized	Compound NOT metabolized	Compound metabolized
